Measured values reported in US20260199320A1, “COMBINATION THERAPIES FOR TREATING CANCER” (INSTITUTE FOR CANCER RESEARCH D/B/A THE RESEARCH INSTITUTE …, priority 2022, published 2026).
Where two headings read alike, the source gives them in different places.

Tested on: HEP 3B Hepatocellular Carcinoma
Assay: Cell viability by CellTiter Blue assay, CalcuSyn 2.0 combination analysis, HEP 3B
Details: for IC50: read-out: Dm; for Dose Len: Len alone; for Dose Lon: Lon alone; for Dose Sor: Sor alone
Description: Cell viability was analyzed by CellTiter Blue assay. ED, effective dose. The data analysis was performed using CalcuSyn 2.0 software. […] CI 0.85-0.9: slight synergism; CI 0.7-0.85: moderate synergism; CI 0.3-0.7: synergism; CI 0.1-0.3: strong synergism; CI<0.1: very strong synergism.

COc1cc2nccc(Oc3ccc(NC(=O)NC4CC4)c(Cl)c3)c2cc1C(N)=O [Len, Lenvatinib]
Effect (Dose 1.0 uM): 0.3487
Effect (Dose 2.0 uM): 0.5908
Effect (Dose 4.0 uM): 0.6835
Effect (Dose 6.0 uM): 0.706
Effect (Dose 8.0 uM): 0.7316
Effect (Dose 1.0E−4 uM): 1.0E−4
IC50 (Homo sapiens, Hep3B): 1.98 µM
Dose Len (Fa 0.05): 0.08241 µM
Dose Len (Fa 0.1): 0.1847 µM
Dose Len (Fa 0.15): 0.3044 µM
Dose Len (Fa 0.2): 0.4435 µM
Dose Len (Fa 0.25): 0.605 µM
Dose Len (Fa 0.3): 0.7937 µM
Dose Len (Fa 0.35): 1.016 µM
Dose Len (Fa 0.4): 1.279 µM
Dose Len (Fa 0.45): 1.596 µM
Dose Len (Fa 0.48908 (experimental point)): 1.891 µM
Dose Len (Fa 0.5): 1.982 µM
Dose Len (Fa 0.55): 2.462 µM
Dose Len (Fa 0.6): 3.071 µM
Dose Len (Fa 0.65): 3.868 µM
Dose Len (Fa 0.66115 (experimental point)): 4.08 µM
Dose Len (Fa 0.7): 4.949 µM
Dose Len (Fa 0.75): 6.493 µM
Dose Len (Fa 0.76439 (experimental point)): 7.066 µM
Dose Len (Fa 0.79346 (experimental point)): 8.481 µM
Dose Len (Fa 0.8): 8.859 µM
Dose Len (Fa 0.83864 (experimental point)): 11.7543 µM
Dose Len (Fa 0.85): 12.9048 µM
Dose Len (Fa 0.9): 21.2693 µM
Dose Len (Fa 0.95): 47.6701 µM
Dose Len (Fa 0.97): 84.6505 µM
Dose Len (Fa 1.0E−4 (experimental point)): 9.48e-05 µM

NC(=O)N1CCC(CC(=O)N2CCC([C@H]3c4ncc(Br)cc4CCc4cc(Cl)cc(Br)c43)CC2)CC1 [Lon, Lonafarnib]
Effect (Dose 100.0 nM): 0.2171
Effect (Dose 200.0 nM): 0.2792
Effect (Dose 400.0 nM): 0.3124
Effect (Dose 600.0 nM): 0.3247
Effect (Dose 800.0 nM): 0.3747
Effect (Dose 1.0E−4 nM): 1.0E−4
IC50 (Homo sapiens, Hep3B): 1.56 µM
Dose Lon (Fa 0.05): 7.632 nM
Dose Lon (Fa 0.1): 29.4334 nM
Dose Lon (Fa 0.15): 67.8864 nM
Dose Lon (Fa 0.2): 127.362 nM
Dose Lon (Fa 0.25): 214.159 nM
Dose Lon (Fa 0.3): 337.210 nM
Dose Lon (Fa 0.34468 (experimental point of LonSor)): 488.163 nM
Dose Lon (Fa 0.35): 509.303 nM
Dose Lon (Fa 0.37774 (experimental point of LonSor)): 632.458 nM
Dose Lon (Fa 0.4): 749.086 nM
Dose Lon (Fa 0.45): 1084.42 nM
Dose Lon (Fa 0.48908 (experimental point of LonLen)): 1439.98 nM
Dose Lon (Fa 0.5): 1558.23 nM
Dose Lon (Fa 0.55): 2239.05 nM
Dose Lon (Fa 0.6): 3241.39 nM
Dose Lon (Fa 0.60837 (experimental point of LonSor)): 3452.95 nM
Dose Lon (Fa 0.65): 4767.46 nM
Dose Lon (Fa 0.66115 (experimental point of LonLen)): 5212.31 nM
Dose Lon (Fa 0.7): 7200.51 nM
Dose Lon (Fa 0.75): 11337.8 nM
Dose Lon (Fa 0.76439 (experimental point of LonLen)): 13060.1 nM
Dose Lon (Fa 0.79346 (experimental point of LonLen)): 17723.1 nM
Dose Lon (Fa 0.8): 19064.4 nM
Dose Lon (Fa 0.83864 (experimental point of LonLen)): 30595.1 nM
Dose Lon (Fa 0.84428 (experimental point of LonSor)): 33023.4 nM
Dose Lon (Fa 0.85): 35766.8 nM
Dose Lon (Fa 0.9): 82494.1 nM
Dose Lon (Fa 0.93635 (experimental point of LonSor)): 200408. nM
Dose Lon (Fa 0.95): 318153. nM
Dose Lon (Fa 0.97): 831265. nM
Dose Lon (Fa 1.0E−4 (experimental point)): 9.27e-05 nM

CNC(=O)c1cc(Oc2ccc(NC(=O)Nc3ccc(Cl)c(C(F)(F)F)c3)cc2)ccn1 [Sor, Sorafenib]
Effect (Dose 1.0 uM): 0.05824
Effect (Dose 2.0 uM): 0.1667
Effect (Dose 4.0 uM): 0.4078
Effect (Dose 6.0 uM): 0.6762
Effect (Dose 8.0 uM): 0.8681
Effect (Dose 1.0E−4 uM): 1.0E−4
Dose Sor (Fa 0.05): 0.1769 µM
Dose Sor (Fa 0.1): 0.4116 µM
Dose Sor (Fa 0.15): 0.6944 µM
Dose Sor (Fa 0.2): 1.029 µM
Dose Sor (Fa 0.25): 1.425 µM
Dose Sor (Fa 0.3): 1.893 µM
Dose Sor (Fa 0.34468 (experimental point)): 2.386 µM
Dose Sor (Fa 0.35): 2.451 µM
Dose Sor (Fa 0.37774 (experimental point)): 2.806 µM
Dose Sor (Fa 0.4): 3.12 µM
Dose Sor (Fa 0.45): 3.933 µM
Dose Sor (Fa 0.5): 4.934 µM
Dose Sor (Fa 0.55): 6.19 µM
Dose Sor (Fa 0.6): 7.803 µM
Dose Sor (Fa 0.60837 (experimental point)): 8.118 µM
Dose Sor (Fa 0.65): 9.934 µM
Dose Sor (Fa 0.7): 12.8580 µM
Dose Sor (Fa 0.75): 17.0827 µM
Dose Sor (Fa 0.8): 23.6479 µM
Dose Sor (Fa 0.84428 (experimental point)): 33.3507 µM
Dose Sor (Fa 0.85): 35.0585 µM
Dose Sor (Fa 0.9): 59.1449 µM
Dose Sor (Fa 0.93635 (experimental point)): 103.075 µM
Dose Sor (Fa 0.95): 137.645 µM
Dose Sor (Fa 0.97): 251.060 µM
Dose Sor (Fa 1.0E−4 (experimental point)): 0.000148 µM
IC50 (CalcuSyn median-effect fit, single drug dosed in uM): 4.93 µM
